Reference: patent US10526389B2, “Peptides and combinations of peptides for use in immunotherapy against lung cancer, including NSCLC and other cancers” (Immatics Biotechnologies GmbH, priority 2015, dated 2020)

System: CD8+ T cells
Experiment: In vitro immunogenicity of HLA-A*02 peptides (CD8+ T-cell priming with aAPCs, multimer staining)
Type: cell-based, human
From the text: In order to obtain information regarding the immunogenicity of the TUMAPs of the present invention, the inventors performed investigations using an in vitro T-cell priming assay based on repeated stimulations of CD8+ T cells with artificial antigen presenting cells (aAPCs) loaded with peptide/MHC complexes and anti-CD28 antibody.
In order to perform in vitro stimulations by artificial antigen presenting cells loaded with peptide-MHC complex (pMHC) and anti-CD28 antibody, the inventors first isolated CD8+ T cells from fresh HLA-A*02 leukapheresis products via positive selection using CD8 microbeads (Miltenyi Biotec, Bergisch-Gladbach, Germany) of healthy donors obtained from the University clinics Mannheim, Germany, after informed consent.
PBMCs and isolated CD8+ lymphocytes were incubated in T-cell medium (TCM) until use consisting of RPMI-Glutamax (Invitrogen, Karlsruhe, Germany) supplemented with 10% heat inactivated human AB serum (PAN-Biotech, Aidenbach, Germany), 100 U/ml Penicillin/100 μg/ml Streptomycin (Cambrex, Cologne, Germany), 1 mM sodium pyruvate (CC Pro, Oberdorla, Germany), 20 μg/ml Gentamycin (Cambrex). 2.5 ng/ml IL-7 (PromoCell, Heidelberg, Germany) and 10 U/ml IL-2 (Novartis Pharma, Nurnberg, Germany) were also added to the TCM at this step.
Generation of pMHC/anti-CD28 coated beads, T-cell stimulations and readout was performed in a highly defined in vitro system using four different pMHC molecules per stimulation condition and 8 different pMHC molecules per readout condition.
The purified co-stimulatory mouse IgG2a anti human CD28 Ab 9.3 (Jung et al., 1987) was chemically biotinylated using Sulfo-N-hydroxysuccinimidobiotin as recommended by the manufacturer (Perbio, Bonn, Germany). Beads used were 5.6 μm diameter streptavidin coated polystyrene particles (Bangs Laboratories, Illinois, USA).
800.000 beads/200 μl were coated in 96-well plates in the presence of 4×12.5 ng different biotin-pMHC, washed and 600 ng biotin anti-CD28 were added subsequently in a volume of 200 μl. Stimulations were initiated in 96-well plates by co-incubating 1×10^6 CD8+ T cells with 2×10^5 washed coated beads in 200 μl TCM supplemented with 5 ng/ml IL-12 (PromoCell) for 3 days at 37° C. Half of the medium was then exchanged by fresh TCM supplemented with 80 U/ml IL-2 and incubating was continued for 4 days at 37° C. This stimulation cycle was performed for a total of three times. For the pMHC multimer readout using 8 different pMHC molecules per condition, a two-dimensional combinatorial coding approach was used as previously described (Andersen et al., 2012) with minor modifications encompassing coupling to 5 different fluorochromes. Finally, multimeric analyses were performed by staining the cells with Live/dead near IR dye (Invitrogen, Karlsruhe, Germany), CD8-FITC antibody clone SK1 (BD, Heidelberg, Germany) and fluorescent pMHC multimers. For analysis, a BD LSRII SORP cytometer equipped with appropriate lasers and filters was used. Peptide specific cells were calculated as percentage of total CD8+ cells. Evaluation of multimeric analysis was done using the FlowJo software (Tree Star, Oregon, USA). In vitro priming of specific multimer+CD8+ lymphocytes was detected by comparing to negative control stimulations.

Substance | in vitro immunogenicity: donors | in vitro immunogenicity: wells
DROSHA-001 (AVVEFLTSV) | ++++ (>= 70% = ++++) | + (<20% = +)
DUSP4-001 (FVFSFPVSV; listed as Homo sapiens) | ++++ (>= 70% = ++++) | ++ (20%-49% = ++)
ERO-001 (LLLEILHEI; listed as Homo sapiens) | +++ (50%-69% = +++) | + (<20% = +)
FLFDGSANL (listed as Homo sapiens) [SEQ ID No. 13] | ++ (20%-49% = ++) | + (<20% = +)
FLIPYAIML (listed as Homo sapiens) [SEQ ID No. 2] | ++++ (>= 70% = ++++) | + (<20% = +)
FZD-001 (VLAPLFVYL; listed as Homo sapiens) | ++++ (>= 70% = ++++) | +++ (50%-69% = +++)
GBP5-001 (SLLSELQHA; listed as Homo sapiens) | ++ (20%-49% = ++) | + (<20% = +)
GFPT2-001 (AIDGNNHEV) | ++++ (>= 70% = ++++) | +++ (50%-69% = +++)
ILIDWLVQV (listed as Homo sapiens) [SEQ ID No. 117] | ++++ (>= 70% = ++++) | ++ (20%-49% = ++)
ILLTEQINL (listed as Homo sapiens) [SEQ ID No. 18] | ++ (20%-49% = ++) | + (<20% = +)
ILQDRLNQV (listed as Homo sapiens) [SEQ ID No. 152] | +++ (50%-69% = +++) | + (<20% = +)
IVAESLQQV (listed as Homo sapiens) [SEQ ID No. 105] | + (<20% = +) | + (<20% = +)
IVDDITYNV (listed as Homo sapiens) [SEQ ID No. 119] | ++++ (>= 70% = ++++) | ++ (20%-49% = ++)
IVDRTTTVV (listed as Homo sapiens) [SEQ ID No. 12] | ++++ (>= 70% = ++++) | ++++ (>= 70% = ++++)
KIF26B-001 (TVAEVIQSV; listed as Homo sapiens) | + (<20% = +) | + (<20% = +)
KIFDEILVNA (listed as Homo sapiens) [SEQ ID No. 144] | ++ (20%-49% = ++) | + (<20% = +)
KIIGIMEEV (listed as Homo sapiens) [SEQ ID No. 95] | ++++ (>= 70% = ++++) | ++++ (>= 70% = ++++)
KILEDVVGV (listed as Homo sapiens) [SEQ ID No. 130] | ++++ (>= 70% = ++++) | ++ (20%-49% = ++)
KIQEILTQV (listed as Homo sapiens) [SEQ ID No. 120] | ++++ (>= 70% = ++++) | + (<20% = +)
KIQEMQHFL (listed as Homo sapiens) [SEQ ID No. 116] | ++++ (>= 70% = ++++) | + (<20% = +)
KLDETNNTL (listed as Homo sapiens) [SEQ ID No. 158] | ++ (20%-49% = ++) | + (<20% = +)
KRT-006 (TLLQEQGTKTV; listed as Homo sapiens) | ++ (20%-49% = ++) | + (<20% = +)
LIFDLGGGTFDV (listed as Homo sapiens) [SEQ ID No. 16] | +++ (50%-69% = +++) | + (<20% = +)
LIQDRVAEV (listed as Homo sapiens) [SEQ ID No. 14] | ++++ (>= 70% = ++++) | + (<20% = +)
MAGEF1-001 (ILFPDIIARA; listed as Homo sapiens) | ++++ (>= 70% = ++++) | +++ (50%-69% = +++)
